Data from US20240148821A1, “PHARMACEUTICAL USE OF CYCLIC PEPTIDE COMPOUND” (CHUGAI SEIYAKU KABUSHIKI KAISHA, priority 2021, published 2024).
Numbered stars: 1 amine (or outer) side, 2 acyl side, 3 side chain; on linkers, the order of the positions; unused ones are H or OH. Bridge positions count the residues as written; N and C are the ends. Square brackets hold non-standard residues; d marks the D form. Peptide text beside a SMILES is read from it. * marks the point of attachment. hPhe(3-Cl-4-CF3) = N[C@@H](CCc1ccc(C(F)(F)F)c(Cl)c1)C(=O)O; X46 = CN([C@@H](CCC1CN(C(=O)OC(C)(C)C)C1)C(=O)[*:2])[*:1]; NMePhe(4-F) = CN[C@@H](Cc1ccc(F)cc1)C(=O)O; NMeCha = CN[C@@H](CC1CCCCC1)C(=O)O; Hyp = O=C(O)[C@@H]1C[C@@H](O)CN1; NMeChg = CN[C@H](C(=O)O)C1CCCCC1; NMeI = CC[C@H](C)[C@H](NC)C(=O)O; d(β3hL) = CC(C)C[C@@H](N)CC(=O)O; N(CH2CH2)2CF2 = FC1(F)CCN(*)CC1; NMeD = CN[C@@H](CC(=O)O)C(=O)O; NMeL = CN[C@@H](CC(C)C)C(=O)O; NMeV = CN[C@H](C(=O)O)C(C)C; d(β3hA) = C[C@@H](N)CC(=O)O; NMeA = CN[C@@H](C)C(=O)O; Piperidide = C1CCN(*)CC1; Ac5c = NC1(C(=O)O)CCCC1; Aze = O=C(O)[C@@H]1CCN1; X9 = c1cncc(C*)c1; Sar = CNCC(=O)O

These compounds were tested against protein-protein interaction between Kras and SOS1 (biotin-tagged human Kras loaded with GDP, His-tagged human SOS1) (Homo sapiens (Human), UniProt P01116, G12D) (assay: Protein-protein interaction inhibition between Kras and SOS1 (KrasG12D-SOS PPI) using AlphaScreen). Details: AlphaScreen; biotin-tagged human Kras loaded with GDP, His-tagged human SOS1; read-out: KRAS G12D-SOS PPI IC50.
Format: biochemical

Row | Compound | IC50 [nM]
1 | CC[C@H](C)[C@@H]1NC(=O)[C@H](CC(C)C)N(C)C(=O)C[C@@H](C(=O)N2CCCCC2)N(C)C(=O)[C@H](C2CCCCC2)N(C)C(=O)C2(CCCC2)NC(=O)[C@H](CCC2CN(C(=O)OC(C)(C)C)C2)N(C)C(=O)[C@H](CCc2ccc(C(F)(F)F)c(Cl)c2)NC(=O)CN(C)C(=O)[C@H](CC2CCCCC2)N(C)C(=O)CN(C)C(=O)CN(C)C1=O [Compound 2056, tert-butyl 3-[2-[(8S,11S,17S,26S,29S,33S,36S)-11-[2-[3-chloro-4-(trifluoromethyl)phenyl]ethyl]-36-cyclohexyl-17-(cyclohexylmethyl)-29-isobutyl-9,15,18,21,24,30,34,37-octamethyl-26-[(1S)-1-methylpropyl]-7,10,13,16,19,22,25,28,31,35,38-undecaoxo-33-(piperidine-1-carbonyl)-6,9,12,15,18,21,24,27,30,34,37-undecazaspiro[4.3 3]octatriacontan-8-yl]ethyl]azetidine-1-carboxylate] ([NMeL]I[Sar][Sar][NMeCha][Sar][hPhe(3-Cl-4-CF3)][X46][Ac5c][NMeChg][NMeD]-Piperidide; lactam N-11) | 13
2 | CC[C@H](C)[C@@H]1NC(=O)[C@H](CC(C)C)N(C)C(=O)C[C@@H](C(=O)N2CCCCC2)NC(=O)[C@H](C(C)C)N(C)C(=O)C2(CCCC2)NC(=O)[C@@H]2CCCN2C(=O)[C@H](CCc2ccc(C(F)(F)F)c(Cl)c2)NC(=O)CN(C)C(=O)[C@H](CC2CCCCC2)N(C)C(=O)[C@@H]2CCN2C(=O)[C@H](C)N(C)C1=O [Compound 1353] ([NMeL]I[NMeA][Aze][NMeCha][Sar][hPhe(3-Cl-4-CF3)]P[Ac5c][NMeV]D-Piperidide; lactam N-11) | 11
3 | CC[C@H](C)[C@@H]1NC(=O)[C@H](CC(C)C)N(C)C(=O)C[C@@H](C(=O)N2CCCCC2)N(C)C(=O)[C@H](C2CCCCC2)N(C)C(=O)C2(CCCC2)NC(=O)[C@@H]2C[C@@H](OCc3cccnc3)CN2C(=O)[C@H](CCc2ccc(C(F)(F)F)c(Cl)c2)NC(=O)CN(C)C(=O)[C@H](CC2CCCCC2)N(C)C(=O)CN(C)C(=O)CN(C)C1=O [Compound 2121] ([NMeL]I[Sar][Sar][NMeCha][Sar][hPhe(3-Cl-4-CF3)][Hyp](X9)[Ac5c][NMeChg][NMeD]-Piperidide; lactam N-11) | 0.56
4 | CC[C@H](C)[C@@H]1NC(=O)[C@H](CC(C)C)N(C)C(=O)C[C@@H](C)NC(=O)[C@H](C(C)C)N(C)C(=O)C2(CCCC2)NC(=O)[C@H](CC(=O)N2CCC(F)(F)CC2)N(C)C(=O)[C@H](CCc2ccc(C(F)(F)F)c(Cl)c2)NC(=O)CN(C)C(=O)[C@H](CC2CCCCC2)N(C)C(=O)CN(C)C(=O)CN(C)C1=O [Compound 452] (cyclo([Ac5c][NMeV][d(β3hA)][NMeL]I[Sar][Sar][NMeCha][Sar][hPhe(3-Cl-4-CF3)][NMeD](N(CH2CH2)2CF2))) | 80
5 | CC[C@H](C)[C@@H]1NC(=O)[C@H](CC(C)C)N(C)C(=O)C[C@@H](CC(C)C)NC(=O)[C@H]([C@@H](C)CC)N(C)C(=O)C2(CCCC2)NC(=O)[C@@H]2CCCN2C(=O)[C@H](CCc2ccc(C(F)(F)F)c(Cl)c2)NC(=O)CN(C)C(=O)[C@H](CC2CCCCC2)N(C)C(=O)[C@@H]2CCN2C(=O)[C@H](C)N(C)C1=O [Compound 798] (cyclo([Ac5c][NMeI][d(β3hL)][NMeL]I[NMeA][Aze][NMeCha][Sar][hPhe(3-Cl-4-CF3)]P)) | 59
6 | CC[C@H](C)[C@@H]1NC(=O)[C@H](CC(C)C)N(C)C(=O)C[C@@H](C(=O)N2CCCCC2)N(C)C(=O)[C@H]([C@@H](C)CC)N(C)C(=O)C2(CCCC2)NC(=O)[C@@H]2CCCN2C(=O)[C@H](CCc2ccc(C(F)(F)F)c(Cl)c2)NC(=O)CN(C)C(=O)[C@H](Cc2ccc(F)cc2)N(C)C(=O)[C@@H]2CCN2C(=O)[C@H](C)N(C)C1=O [Compound 1060] ([NMeL]I[NMeA][Aze][NMePhe(4-F)][Sar][hPhe(3-Cl-4-CF3)]P[Ac5c][NMeI][NMeD]-Piperidide; lactam N-11) | 0.65
